{
  "source": "patent US8937063B2",
  "about": "(Trustees of Tufts College, priority 2010, dated 2015)",
  "key": {"[1]": {"experiment": "Single oral dose pharmacokinetic comparison niacin, ARI-001, 2230C in wild type mice", "assay_type": "in vivo, C57BL/6 mice", "settings": "single bolus oral gavage, mouse plasma", "text": "Compound 2230C has the structure"}, "[2]": {"experiment": "Single-dose pharmacokinetic study PO/IP in wild type mice", "assay_type": "in vivo, C57BL/6 mice", "settings": "for AUC / Cmax / Tmax / half-life: C57BL/6, mouse plasma", "protocol": "Plasma from the 19 hamsters dosed with ARI-001 in the above described 18-day study was analyzed for concentrations of ARI-001. Concentrations were determined for these samples, which were collected 24 hours after the final dose was administered. Briefly, plasma drug concentrations for the non-GLP pharmacokinetic experiments were determined by LC-MS using an Applied Biosystems 4000Qtrap spectrometer with electrospray ionization. Samples were prepared for analysis by precipitation of plasma proteins with cold methanol. HPLC of the samples was done with an Agilent Eclipse C18 column and a methanol/water gradient containing 0.1% formic acid and 5 mM ammonium acetate. ARI-001 was detected using multiple reaction monitoring (MRM) in the positive ion mode. For quantitation, a standard curve was measured by addition of known amounts of ARI-001 to plasma from untreated animals and preparing in a manner identical to the samples from treated animals. All plasma samples were spiked with 10 ng/mL of isotope-enriched ARI-001 which served as an internal standard for the LC-MS measurements. All compound concentrations are reported in μM. For correlation analysis, plasma concentrations of ARI-001 in a given animal were paired with that same animal's lipid parameter. […] These correlations are graphed in FIG. 6 and FIG. 7. Pearson r values were determined using all data points, as was the two-tailed P-value for the data set.\nWild type C57BL/6 mice were dosed with a single administration of ARI-001 in solution either via oral gavage (PO) or via intraperitoneal injection (IP). Blood samples were then collected at various time points over a 24-hour period; plasma was then analyzed for concentrations of ARI-001 as described earlier. ARI-001 was administered at either a dose of 2240 mg/kg as a single bolus via oral gavage, or a dose of 448 mg/kg as a single bolus via intraperitoneal injection."}, "ApoAI mRNA": {"system": "ApoAI mRNA", "experiment": "qPCR of liver mRNA in HF/HS hamsters", "assay_type": "in vivo, hamster", "settings": "ARI-001 2240 mg/kg oral 18 days; relative to mean of vehicle", "text": "(§1) Hamster livers and adipose were preared in manners similar to that described for ARI-001 concentration determination. Briefly, to prepare for analysis, a sample of liver was excised from the frozen mass, weighed, and homogenized with a tissue grinder followed by sonication in buffer. The solid materials were then removed by centrifugation. The resulting lysate was used in qPCR analysis to quantify the specific mRNA measured (vide infra) using primers designed for the specific sequences of interest. All mRNA quantities were normalized to vehicle-treated animal, and mRNA levels were expressed as a fold increase or decrease relative to vehicle-treated. […] During grinding, liquid nitrogen was added to ensure the sample of adipose remained solid. The ground sample was transferred to a tared tube to weigh total sample. This ground sample was treated with buffer and prepared for qPCR to quantify specific mRNA quantities."}, "SR-BI mRNA": {"system": "SR-BI mRNA", "experiment": "qPCR of liver mRNA in HF/HS hamsters", "assay_type": "in vivo, hamster", "settings": "ARI-001 2240 mg/kg oral 18 days; relative to mean of vehicle", "text": "as §1"}, "ABCA1 mRNA": {"system": "ABCA1 mRNA", "experiment": "qPCR of liver mRNA in HF/HS hamsters", "assay_type": "in vivo, hamster", "settings": "ARI-001 2240 mg/kg oral 18 days; relative to mean of vehicle", "text": "as §1"}, "healthy adult volunteers": {"system": "healthy adult volunteers", "experiment": "Human clinical trial, single escalating oral doses: flushing", "assay_type": "in vivo", "settings": "single oral doses 500 to 6000 mg; preliminary", "protocol": "A randomized, double-blind, placebo-controlled study is performed with sequential escalating doses by cohort with observations for 30 hours post dosing and return visit on 8th day. Study subjects are healthy male and female adult volunteers, age 18-60 years, with LDL-C>130 mg/dL and weight <85 kg. Subjects are randomly assigned to receive study drug or placebo.\nFive periods of single dose escalation, with 8 subjects per cohort (6 drug: 2 placebo) involve a total 40 subjects. Appropriately blinded matching placebos are provided. Cohort 1 receives 500 mg of ARI-001 formulated as a single oral tablet, plus eleven placebo tablets; Cohort 2, 1000 mg taken as two 500 mg tablets of ARI-001, plus ten placebo tablets; Cohort 3, 2000 mg taken as four 500 mg tablets of ARI-001, plus eight placebo tablets; Cohort 4, 4000 mg taken as eight 500 mg tablets of ARI-001, plus four placebo tablets; Corhort 5, 6000 mg taken as twelve 500 mg tablets of ARI-001. Placebo-only subjects take twelve placebo tablets. Each tablet is a compressed, film-coated tablet suitable for oral administration. […]"}, "adiponectin mRNA": {"system": "adiponectin mRNA", "experiment": "qPCR of adipose mRNA in HF/HS hamsters", "assay_type": "in vivo, hamster", "settings": "ARI-001 2240 mg/kg oral 18 days; relative to mean of vehicle", "text": "as §1"}, "[3]": {"settings": "PO, 2240 mg/kg single bolus oral gavage"}},
  "data": [
    {"compound": "O=C(O)c1ccc(CCN2CCOCC2)nc1", "note": "[ARI-001]", "values": [
      {"measurement": "AUC", "setting": "[1]; C57BL/6", "value": 1100, "unit": "µM·h"},
      {"measurement": "Cmax", "setting": "[1]; C57BL/6", "value": 309, "unit": "µM"},
      {"measurement": "Tmax", "setting": "[1]; C57BL/6", "value": 22.8, "unit": "min"},
      {"measurement": "half-life", "setting": "[1]; C57BL/6, read-out: half-life (t1/2) (converted)", "value": 85.8, "unit": "min"},
      {"measurement": "AUC (% Niacin)", "setting": "[1]", "value": 9.4, "unit": "% Niacin"},
      {"measurement": "Cmax (% Niacin)", "setting": "[1]", "value": 7.5, "unit": "% Niacin"},
      {"measurement": "Cmax/AUC0-24", "setting": "[1]", "value": 0.28, "unit": "h⁻¹"},
      {"measurement": "AUC", "setting": "[2]; IP, 448 mg/kg single bolus", "value": 439, "unit": "µM·h"},
      {"measurement": "Cmax", "setting": "[2]; IP, 448 mg/kg single bolus", "value": 450, "unit": "µM"},
      {"measurement": "Tmax", "setting": "[2]; IP, 448 mg/kg single bolus", "value": 15, "unit": "min"},
      {"measurement": "half-life", "setting": "[2]; IP, 448 mg/kg single bolus", "value": 30, "unit": "min"},
      {"measurement": "AUC", "setting": "[2]; [3]", "value": 1100, "unit": "µM·h"},
      {"measurement": "Cmax", "setting": "[2]; [3]", "value": 289, "unit": "µM"},
      {"measurement": "Tmax", "setting": "[2]; [3]", "value": 30, "unit": "min"},
      {"measurement": "half-life", "setting": "[2]; [3]", "value": 90, "unit": "min"},
      {"measurement": "remaining plasma concentration at the 24 hour timepoint", "setting": "[2]; single dose PO 2240 mg/kg or IP 448 mg/kg", "value": "undetectable"},
      {"measurement": "Liver ApoAI mRNA per mg tissue", "setting": "ApoAI mRNA", "value": "1.72 ± 0.24", "unit": "fold-change"},
      {"measurement": "Liver SR-BI mRNA per mg tissue", "setting": "SR-BI mRNA", "value": "1.50 ± 0.33", "unit": "fold-change"},
      {"measurement": "Liver ABCA1 mRNA per mg tissue", "setting": "ABCA1 mRNA", "value": "1.54 ± 0.48", "unit": "fold-change"},
      {"measurement": "signs of flushing", "setting": "healthy adult volunteers", "value": "no patients exhibited any signs of flushing"},
      {"measurement": "Adipose Adiponectin mRNA per mg tissue", "setting": "adiponectin mRNA", "value": "2.00 ± 0.23", "unit": "fold-change"}
    ]}
  ]
}
